{"source": "patent US11752180B2", "about": "“Intestinal protectant” (National University Corporation Asahikawa Medical University, priority 2010, dated 2023)", "tested_on": "integrin (integrin β)", "experiment": "Interaction between polyphosphoric acid and integrin: mannitol ex vivo loop assay with peptide antagonist of integrin", "set-up": "species or system mouse", "protocol": "Using a peptide antagonist of integrin, the interaction between polyphosphoric acid and integrin was analyzed. For the peptide antagonist of integrin, the peptide having the amino acid sequence of Gly-Arg-Gly-Asp-Thr-Pro (GRGDTP) (hereinafter also referred to as “GRGDTP”) was used. GRGDTP has the sequence of Arg-Gly-Asp (RGD), which is recognized by integrin β.\nThe intestinal tract permeability experiment on mannitol by ex vivo loop assay was carried out in the same manner as in Example 9 and Example 11 except that GRGDTP was added in a concentration of 100 μg/ml, in addition to the enzymatically synthesized polyphosphoric acid or the chemically synthesized polyphosphoric acid, to the PBS solution to be filled in the intestinal tract, and the intestinal tract barrier function was evaluated.", "note": "Where no end group is shown, it is not given here.", "data": [{"substance": "GRGDTP [peptide antagonist of integrin]", "values": [{"measurement": "effect of GRGDTP on the intestinal tract barrier effect of chemically synthesized polyphosphoric acid (mannitol leakage)", "setting": "GRGDTP 100 μg/ml in combination with chemically synthesized polyphosphoric acid", "result": "had the same result"}, {"measurement": "effect of GRGDTP on the intestinal tract barrier effect of enzymatically synthesized polyphosphoric acid (mannitol leakage)", "setting": "GRGDTP 100 μg/ml in combination with enzymatically synthesized polyphosphoric acid", "result": "remarkably inhibited"}]}]}
